From patent US20030077653A1, “Method for the identification of active site protease inactivators” (The University of Georgia Research Foundation, Inc., priority 2000, published 2003)
Like-named read-outs stand apart in the source and are kept apart here. Starred links: 1 amine or outer side, 2 acyl side, 3 side chain; linkers in the order of their positions; H or OH if unused. Residues, ends and D or L forms follow the SMILES beside them. *: point of attachment. AFC = O=c1cc(C(F)(F)F)c2ccc(N*)cc2o1; Suc = O=C(CCC(=O)[*:2])[*:1]; Cbz = O=C(OCc1ccccc1)*

Assays:
[1] = tested on: T solium purified cysteine protease; assay: Human IgG degradation assay (western blot; Step IV); format: biochemical, Taenia solium; conditions: 18 hrs, 37° C.
Protocol: FIG.6. IgG degradation of heavy chain by purified cysteine protease of Taenia solium. human IgG was incubated for 18 hours with T. solium purified cysteine protease (CP). Incubated tubes were subsequently fractionated by SDS-PAGE under reducing conditions, blotted onto PVDF membrane, and visualized using biotinylated anti-IgG (heavy chain/light chain), biotin-peroxidase conjugated-strepavidin complex and enhanced chemiluminescence. Bands represent heavy chains.
To conduct this assessment, a western blot was performed. IgG digestion was detected by incubating 20 μl of T solium purified enzyme or T solium extract with 1 μg of human IgG (Sigma, St. Louis) in a fmal volume of 100 μl of assay buffer. Exogenous thiol activation was assessed by incubating the assay in the presence or absence of cysteine. The catalytic class of the IgG protease was determined by pre-incubating the following proteinase inhibitors at their active concentrations, with the enzyme: E 64 (10^−6 M, cysteine proteinases), phenylmethylsulfonyl fluoride (PMSF) (10^−3 M, serine proteinases), pepstatin A (10^−6 M, aspartic proteinases), and 1,10 phenanthroline (10^−3 M, metalloproteinases), and the vehicle, Mu-Leu-Tyr-AFC (10^−3 M). After addition of IgG, the assay was incubated overnight (37° C., 18 hrs). […]

Taenia crassiceps cysts [2] = assay: Scanning electron microscopy of surfaces of cysts removed from treated mice; format: in vivo
Excerpt: FIG. 9. Scanning electron microscopy of the surface of cysts removed from untreated mice versus cysts removed from treated mice. Magnifications are identical for both slides in each panel. panel A (4000×). […] No immune cells were seen on cysts removed from untreated mice. Panel B (25,000×). […] Microtriches in untreated cysts can be seen to be visibly longer. Visible anchors were also noted for the untreated cysts group, whereas these anchors were not observed in microtriches from treated cysts.
For example, we hypothesized that the cysteine protease was a key parasitic molecule to allow the cyst to evade the host immune response, by cleaving host antibodies. By inhibiting the Taenia cysteine protease with Z-LLY-FMK, we hypothesized that host immunoglobulin could now bind the parasites, and initiate immunological responses (e.g., complement via IgG2a) which would cause damage to the cyst wall. […] We identified macrophages, neutrophils, fibroblasts, and collagenous deposits on the cyst surfaces from treated mice, in comparison to their absence on cysts from untreated mice. General surface atrophy was also apparent. […] Breaks in the integrity of the cyst surface were also noted for the cysts removed from treated mice. […] Cysts removed from untreated mice were characterized by no immune cells, intact and longer microtriches, and homogeneity of the cyst surface.

Taenia crassiceps cysts [3] = assay: Short-term prophylactic protection of BALB/c mice from cysticercosis infection; format: in vivo; conditions: pre-injected two days, 10 T. crassiceps cysts/mouse, dosed daily four weeks, intraperitoneal; vs untreated controls
Protocol: FIG. 8. […] Each treated mouse was pre-injected intraperitoneally with inhibitor for two days. During treatment phase, each treated mouse received 1.48×10^−2 μg/μl of N2 daily for three weeks and every other day during the last week. Injections were carried out in 150 μl of dimethyl sulfoxide for each mouse. Both treated groups and positive controls were challenged intraperitoneally with 10 Taenia crassiceps cysts in 200 μl 0.15M PBS at the time of initial infection. After one month of infection, both groups were euthanized and cysts removed by washing with sterile 0.15M PBS. A minimum of two attached cysts were scored as multilobed (ML). […] (B) Graphically represents the effect of protease inhibitor treatment of BALB/c mice challenged with Taenia crassiceps cysts over a long-term period. Mice were divided into treated and untreated groups (5 mice/group).Each mouse in the treated group was pre-injected intraperitoneally with inhibitor for two days. […] Cysts were then counted by visual inspection. […]
Based upon the premise that the cyst wall cysteine protease may serve a critical finction to the life cycle of the Taenia cyst, we tested our most efficacious inhibitors, LLL-FMK and LLY-FMK (K-Pyr was used as a control), for their abilities to protect mice from cysticercosis infection. […] After one month, the mice were euthanized and the cysts counted. […]

Cathepsin D = Cathepsin D (Homo sapiens, UniProt P07339); assay: Differential cleavage (selectivity) test; format: biochemical; conditions: vehicle 4×10^−5 M; pH 7.1, Z-RGFFP-AFC
Sequence of Cathepsin D (P07339 65-412): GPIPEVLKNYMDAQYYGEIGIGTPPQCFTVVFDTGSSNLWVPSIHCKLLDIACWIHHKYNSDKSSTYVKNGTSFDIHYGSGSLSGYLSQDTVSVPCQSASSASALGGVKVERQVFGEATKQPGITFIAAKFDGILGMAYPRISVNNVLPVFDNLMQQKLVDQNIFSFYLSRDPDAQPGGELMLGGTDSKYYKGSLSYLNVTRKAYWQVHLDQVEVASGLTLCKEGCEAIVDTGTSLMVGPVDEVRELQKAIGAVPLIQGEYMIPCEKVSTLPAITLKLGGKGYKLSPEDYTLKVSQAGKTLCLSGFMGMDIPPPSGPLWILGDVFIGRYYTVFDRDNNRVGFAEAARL
Protocol: (§1) In order to perform the assay, the vehicle (for Step VI) or inhibitor (for Step IX) were incubated with the appropriate substrate in the correct assay buffer and allowed to equilibrate. Subsequently, the protease was added, and the assay was allowed to incubate for an appropriate time. The concentrations used in this experiment were as follows: Vehicle was set up at 4×10^−5 M in final assay buffer; Inhibitor was set up at 3×10^−10 M in the final assay buffer. Accordingly, the dosages employed should be the minimal amount of vehicle or inhibitor necessary to induce inhibition. […] Substrates were set up based upon the preferred substrate for cleavage of the particular enzyme.
(§2) Positive controls were set up similarly as described for test controls, except that solvent was added in substitution for the inhibitor or vehicle (in a volume equal to the volume of inhibitor or vehicle addition). All of the inhibitors and vehicles could be dissolved in dimethylsulfoxide (DMSO), and therefore, this was the solvent of choice. Negative controls were set up by adding the inhibitor or vehicle and the preferred substrates in a tube without the protease. All potential non-proteolytic liberation of AFC was therefore controlled for in this tube (a feature which also insured stability of the AFC substrates, since these substrates will freely liberate AFC when unstable).
(§3) All controls were set up in triplicate, and experiments were repeated a minimum of five times.
(§4) Percent inhibition was calculated as: [formula]
(§5) In this preliminary test, we employed the following human-derived enzymes (with indicated mechanistic class): Cathepsin B (cysteine), Cathepsin L (cysteine), Cathepsin H (cysteine), Cathepsin D (aspartic) Trypsin (serine), the purified Taenia solium cysteine protease, and the Taenia solium crude mix. Cathepsin B was prepared in an assay buffer of 10 mM L-cysteine in 0.4 M Citrate buffer, pH 6. 1, using Z-ARR-AFC as the cleavage substrate. Cathepsin L was prepared in an assay buffer of 10 mM L-cysteine in 0.4 M Citrate buffer, pH 5.5, using Z-FR-AFC as the cleavage substrate. Cathepsin H was prepared in an assay buffer of 10 mM L-cysteine in 0.15 M PBS buffer, pH 6.8, using L- R-AFC as the cleavage substrate. Cathepsin D was prepared in an assay buffer of 0.15 M PBS, pH 7.1, using Z-RGFFP-AFC as the cleavage substrate. Trypsin was prepared in an assay buffer of 0.15 M PBS, pH 8.0, supplemented with 100 mM CaCl2 and with Z-R-AFC as the cleavage substrate. Enzyme was incubated so that it was at least 50 times less than the concentration of substrate in order to insure saturating conditions.

Cathepsin L = Cathepsin L (Homo sapiens, UniProt P07711); assay: Differential cleavage (selectivity) test; format: biochemical; conditions: vehicle 4×10^−5 M; pH 5.5, Z-FR-AFC
Sequence of Cathepsin L (P07711 114-333): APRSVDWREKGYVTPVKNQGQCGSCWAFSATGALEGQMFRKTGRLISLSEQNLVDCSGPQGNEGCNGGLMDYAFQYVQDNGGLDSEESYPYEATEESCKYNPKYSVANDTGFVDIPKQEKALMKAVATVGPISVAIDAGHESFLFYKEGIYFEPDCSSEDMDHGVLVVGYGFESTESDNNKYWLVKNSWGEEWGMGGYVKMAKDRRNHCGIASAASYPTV
Protocol: as §1, §2, §3, §4, §5

Cathepsin H = molecular target: T1, Cathepsin H (Homo sapiens, UniProt P09668); assay: Differential cleavage (selectivity) test; format: biochemical; conditions: vehicle 4×10^−5 M; pH 6.8, L-R-AFC
T1 sequence (P09668 98-335): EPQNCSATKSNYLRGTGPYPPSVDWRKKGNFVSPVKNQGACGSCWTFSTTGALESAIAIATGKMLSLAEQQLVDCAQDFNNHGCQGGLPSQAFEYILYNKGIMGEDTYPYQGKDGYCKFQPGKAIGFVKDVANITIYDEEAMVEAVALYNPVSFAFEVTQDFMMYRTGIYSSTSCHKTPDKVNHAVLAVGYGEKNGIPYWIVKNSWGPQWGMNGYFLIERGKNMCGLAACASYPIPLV
Protocol: as §1, §2, §3, §4, §5

Cathepsin B = Cathepsin B (Homo sapiens, UniProt P07858); assay: Differential cleavage (selectivity) test; format: biochemical; conditions: vehicle 4×10^−5 M; pH 6.1, Z-ARR-AFC
Protocol: as §1, §2, §3, §4, §5

Trypsin = assay: Differential cleavage (selectivity) test; format: biochemical, human; conditions: vehicle 4×10^−5 M; pH 8.0, Z-R-AFC
Protocol: as §1, §2, §3, §4, §5

[4] = tested on: purified Taenia solium cysteine protease; assay: Screen of AFC-linked synthetic substrates for cleavage (Step II); format: biochemical; conditions: pH 4.9, 18 h, 37° C
Protocol: In this step, the most efficacious substrate for detection of the cysteine protease (high Kcat substrate) was determined in vitro along with those substrates which were not well cleaved (low kcat substrates). From this point forth, the following conditions refer to all assays: “assay buffer” refers to 0.4 M Citrate, pH 4.9 (the pH optima of the protease). Incubation time was 18 hours at 37° C. These conditions were determined by our preliminary data to be best for kinetic evaluation of the protease. […] The experiments were conducted in […] Borosilicate mini-culture tubes (Fisher Scientific), and a fluorometer (Turner) was employed for detection of AFC cleavage.
Approximately 1 ug (or a proteolytically detectable amount) of the purified target cysteine protease was incubated individually, with 1 μg of each of the available substrates in 500 μL of assay buffer. During this setup, the substrate was pre-incubated in the assay buffer for a short period of time (20 minutes) in order to reach an equilibrated status before the addition of the protease. Cleavage assessments were based upon the property of the protease to cleave synthetic peptide substrates linked at the C-terminus to 7-Amino-4-Trifluoromethyl Coumarin (AFC) as previously described. AFC linked tripeptides, dipeptides, and monopeptides, (with a variety of permutations at P3-P1) were available from Enzyme Systems Products (Livermore, CA), and were used as the source of the subset. Following incubation of enzyme preparations overnight (18 h, 37 ° C.) with peptide in assay buffer (Citrate, pH 4.9, supplemented with 0.01 M cysteine), free AFC concentrations were measured fluorometrically (excitation […]). The proteolytic cleavage released the AFC group, which was measurable as a free molecule by a standard fluorometer and converted into molar quantities, based upon a previously established standard curve. The simplicity of AFC detection by the fluorometer was a key factor which quickened and simplified the procedures.
In the assay, 1 ug of the purified Taenia cysteine protease was added to a saturating amount of Z-Phe-Arg-AFC (4×10^−5 M) in assay buffer. The experiment was conducted in triplicate and repeated at least 5 times until we were certain that variability in AFC cleavage was not statistically significant.
Vmax was calculated for the cleavage of substrates by the purified target protease and Vmax was calculated for substrates cleaved by the crude mix protease using conventional kinetic modeling calculations already described in the art.

| Compound | inhibition of cleavage of human IgG [1] | Percent inhibition of Cathepsin D (aspartic) (Cathepsin D) [%] | Percent inhibition of Cathepsin L (cysteine) (Cathepsin L) [%] | Percent inhibition of Cathepsin H (cysteine) (Cathepsin H) [%] | Percent inhibition of Cathepsin B (cysteine) (Cathepsin B) [%] | Percent inhibition of Trypsin (serine) (Trypsin) [%] | cleavage as substrate (Vmax) [4] | other results |
| --- | --- | --- | --- | --- | --- | --- | --- | --- |
| CC(C)CC(NC(=O)CCC(=O)O)C(=O)NC(Cc1ccc(O)cc1)C(=O)Nc1ccc2c(C(F)(F)F)cc(=O)oc2c1 (stereo not drawn) [Suc-Leu-Tyr-AFC] (Suc-Leu-Tyr-{AFC}; configuration not given here) | ability to inhibit | – | – | – | – | – | – | – |
| Leu-Phe-Ketoamide-Pyridyl [K-Pyr] | – | – | – | – | – | – | – | Immune cells observed by SEM on cyst surfaces (Taenia crassiceps cysts [2]): None; Immune cells observed by SEM on cyst surfaces (Taenia crassiceps cysts [2]; listed as K- Pyr): neither adherent immune cells nor damaged tegunent; % Prophylactic protection of BALB/c mice (Taenia crassiceps cysts [3]): 40% |
| CC(C)C[C@H](NC(=O)[C@H]1O[C@@H]1C(=O)O)C(=O)NCCCCN=C(N)N [E64] | Inhibition was noted | – | – | – | – | – | – | – |
| CC(C)C[C@H](NC(=O)OCc1ccccc1)C(=O)N[C@@H](CC(C)C)C(=O)N[C@@H](CC(C)C)C(=O)Nc1ccc2c(C(F)(F)F)cc(=O)oc2c1 [Z-LLL-AFC, Z-Leu- Leu-Leu-AFC] (Cbz-Leu-Leu-Leu-{AFC}) | – | 0 | 0 | 0 | 0 | 0 | noncleavable | – |
| CC(C)C[C@H](NC(=O)OCc1ccccc1)C(=O)N[C@@H](CC(C)C)C(=O)N[C@@H](Cc1ccc(O)cc1)C(=O)Nc1ccc2c(C(F)(F)F)cc(=O)oc2c1 [Z-LLY-AFC, Z-Leu-Leu-Tyr-AFC] (Cbz-Leu-Leu-Tyr-{AFC}) | – | 0 | 0 | 0 | 0 | 0 | noncleavable | – |
